# Results published in patent US8765705B2, “Oligonucleotides inhibiting cellular migration” (Centre National de la Recherche Scientifique, priority 2009, dated 2014).
# “Also recorded” adds a separate entry of the source. d = 2'-deoxy (DNA); r = 2'-OH (RNA)
# How the values were obtained:
# TSP1 mRNA = TSP1 mRNA level in C4-2 cells, real-time RT-PCR normalized to cyclophilin A; type: cell-based, human
# Protocol: (§1) LNCaP and C4-2 cells were grown in RMPI containing 10% fetal calf serum, PC-3 cells in DMEM containing 10% fetal calf serum. The Hiperfect reagent (Qiagen, Courtaboeuf, France) was used to transfect cells in 24 wells plates with the indicated siRNAs (10 nM) as recommended by the manufacturer. A metabolic activity assay (WST1, Roche Diagnostics, Meylan France) was used to measure cell proliferation. To mimic hypoxia, cells were grown in the presence of 300 μM cobalt chloride for 48 h. For hypoxic conditions, cells were cultured at 37° C. with 5% CO2, 94% N2 and 1% O2 in a hypoxic incubator (Binder GmbH, Tuttligen, France).
# (§2) Total RNA was isolated using TRIzol reagent (Invitrogen, Cergy Pontoise, France). RNA were retrotranscribed using a High capacity cDNA Reverse Transcription Kit (Applied Biosystems, Courtaboeuf, France). cDNA was quantified by real time PCR using the Power SYBR® Green PCR Master Mix (Applied Biosystems, Courtaboeuf, France). Human Cyclophilin A was used as an internal control. The sequences of the PCR primers are indicated in the supplementary table 2.
# TSP1 [1] = assay: TSP1 secretion in the culture medium of C4-2 cells (western blotting); type: cell-based, human; details: 2 h treatment
# Protocol: FIG. 2B represents TSP1 secretion in the cell culture medium by C4-2 cells treated for 2 h by vehicle (left) or thapsigargin (1 μM) (right). The secreted TSP1 is measured by western blotting in the cell culture medium. FIG. 2D represents TSP1 secretion in the cell culture medium by C4-2 cells treated for 2 h by vehicle or camphor at the indicated doses. The secreted TSP1 is measured by western blotting in the cell culture medium. FIG. 3D represents Western blot detection of TSP1 in the culture medium of C4-2 cells transfected with cont- or TSP1-siRNA 48 h after transfection.
# C4-2 cells [2] = assay: Intracellular calcium concentration, Fura-2 calcium imaging; type: cell-based, human; details: 300 μM
# Protocol: Fluorescence imaging was carried out in Hank's balanced salt solution (HBSS) containing 142 mM NaCl, 5.6 mM KCl, 1 mM MgCl2, 2 mM CaCl2, 0.34 mM Na2HPO4, 0.44 mM KH2PO4, 10 mM HEPES, and 5.6 mM glucose. Cytosolic calcium concentration was measured using Fura-2 loaded cells (2 μM) as previously described (Mariot et al., 2002). The intracellular calcium concentration was derived from the ratio of the fluorescence intensities for each of the excitation wavelengths (F340/F380) and from the Grynkiewicz equation (Grynkiewicz et al., 1985).
# TRPV3 mRNA = TRPV3 mRNA level in C4-2 cells, real-time RT-PCR; type: cell-based, human; details: 48 h, 300 μM
# Protocol: as §1, §2
# TSP1 [3] = assay: TSP1 expression in PC3 cells exposed to CoCl2; type: cell-based, human
# Protocol: FIG. 4G represents the induction of VEGF (grey) and TSP1 (black) mRNA levels normalized to cyclophilin A levels in PC3 cells grown for the indicated periods in cobalt chloride as compared to the respective mRNA levels in control medium at the same time point.
# FIG. 4H represents TSP1 immunodetection in PC3 cells grown for 48 h in control conditions (N) or in the presence of 300 μM CoCl2 to mimic hypoxia (H).
# as §1
# TSP1 [4] = assay: TSP1 protein expression in C4-2 cells (indirect immunofluorescence); type: cell-based, human; details: for TSP1 protein level: C4-2 cells transfected with siRNA (10 nM), 48 h after transfection
# Protocol: FIG. […]
# as §1
# C4-2 cells [5] = assay: Migration assay, modified Boyden chamber, C4-2 cells; type: cell-based, human; details: siRNA-transfected cells, towards fresh medium
# Protocol: The cell migration capacity can be measured in vitro using a modified Boyden Chamber. Boyden Chamber consists of two compartments separated by a permeable membrane. Cells are placed in the upper chamber and the chemotactic factors in the lower chamber. Cells migrating through the membrane are counted.
# The migration capacity was measured using a modified Boyden Chamber. Cells (40,000) were seeded in RPMI 1% FBS in the upper part of a cell culture-chamber-insert system separated from the lower chamber by a 8 μm PET membrane (BD Biosciences, Le Pont de Claix, France). RPMI 10% FBS, or conditioned medium was added in the lower compartment. Eighteen hours later, non migrating cells in the upper compartment were scrapped off using a cotton swab. Cells on the lower side of the membrane were fixed with methanol at −20° C. and stained with Hoechst 33258 (Sigma-Aldrich, Saint-Quentin Fallavier, France). Membranes were then excised, mounted on a glass side with Glycergel (DAKO) and cells counted.
# [6] = system: TLR3, TLR7, IL6, IL12b, IFNβ, IFNγ, and IP10; assay: Induction of interferon or inflammatory cytokine genes in the spleen of nude mice, real time RT-PCR; details: five hours after one i.p. injection of 4 mg/kg in PBS
# Protocol: The mRNA level of the indicated genes, normalized to cyclophilin A, was quantified by real time RT-PCR in the spleen.
# All the injections were carried out with a dose of 4 mg/kg siRNA diluted in PBS. Five hours after injection, mRNAs coding several genes involved in innate immune response or in inflammation were quantified by quantitative real time RT-PCT.
# C4-2 cells [7] = assay: Cell proliferation, metabolic activity assay (WST1); type: cell-based, human; details: C4-2 cells transfected with siRNA
# Protocol: as §1
# C4-2 cells [8] = assay: Apoptosis, enzymatic activity of caspases 3 and 7; type: cell-based, human; details: for effect on apoptosis: C4-2 cells transfected with siRNA; for enzymatic activity of caspases 3 and 7 versus control: C4-2 cells, 48 h after transfection
# Protocol: FIG. 1F represents the enzymatic activity of caspases 3 and 7 measured 48 h after transfection of C4-2 cells with the TSP1a- or TSP1b-siRNA.
# [9] = C4-2 cells transfected with siRNA (10 nM), 2 days after transfection
compound,measurement,setting,value
"CC12CCC(CC1=O)C2(C)C (stereo not drawn) [camphor, reference compound]",TSP1 mRNA level,"TSP1 mRNA; C4-2 cells, 6 h treatment",dose dependent increase
same,TSP1 secretion into the culture medium,TSP1 [1],stimulated
[Cl][Co][Cl] [cobalt chloride],TSP1 mRNA level,"TSP1 mRNA; C4-2 cells, 48 h, 300 μM",strongly induced
same,"intracellular calcium concentration, resting level",C4-2 cells [2]; 48 h,increased over two fold
same,"intracellular calcium concentration, resting level",C4-2 cells [2]; after 30 min,not modified
same,TRPV3 mRNA level,TRPV3 mRNA,strongly induced
same,TSP1 expression at the mRNA level,TSP1 [3],induced
same,TSP1 expression at the protein level,"TSP1 [3]; 48 h, 300 μM",induced
"C/C=C(/C)C(=O)O[C@H]1C(C)=C2[C@H]([C@@H]1OC(=O)CCCCCCC)[C@@](C)(OC(C)=O)C[C@H](OC(=O)CCC)[C@@]1(O)[C@H]2OC(=O)[C@@]1(C)O [thapsigargin, reference compound]",TSP1 in the cytosol,"TSP1 [4]; C4-2 cells, 2 h treatment, 1 μM",rapid depletion
"CD36: siRNA targeting CD36: UACAGACAGUUUUGGAUCUdTdT / AGAUCCAAAACUGUCUGUAdTdT (chain 1 UACAGACAGUUUUGGAUCUTT; chain 2 AGAUCCAAAACUGUCUGUATT; sugars from the 5' end r19 d2, backbone not given here)",migration of C4-2 cells,C4-2 cells [5],strongly reduced
Poly (I:C) [reference compound],"induction of TLR3, TLR7, IL6, IL12b, IFNβ, IFNγ, and IP10 mRNA",[6],significant increase
"TRPV2: siRNA targeting TRPV2: UAAGAGUCAACCUCAACUAdTdT / UAGUUGAGGUUGACUCUUAdTdT (chain 1 UAAGAGUCAACCUCAACUATT; chain 2 UAGUUGAGGUUGACUCUUATT; sugars from the 5' end r19 d2, backbone not given here)",TSP1 mRNA level,TSP1 mRNA; [9],reduced
"TRPV6: siRNA targeting TRPV6: GGAAGACAGGCAAGAUCUCdTdT / GAGAUCUUGCCUGUCUUCCdTdT (chain 1 GGAAGACAGGCAAGAUCUCTT; chain 2 GAGAUCUUGCCUGUCUUCCTT; sugars from the 5' end r19 d2, backbone not given here)",TSP1 mRNA level,TSP1 mRNA; [9],reduced
"TSP1a-siRNA: Duplex CCUUGACAACAACGUGGUGdTdT / CACCACGUUGUUGUCAAGGdTdT targeting TSP1 mRNA, sequence conserved between human and mouse (sense CCUUGACAACAACGUGGUGTT; antisense CACCACGUUGUUGUCAAGGTT; sugars from the 5' end r19 d2, backbone not given here)",TSP1 mRNA level,TSP1 mRNA; [9],significantly reduces
same,TSP1 protein level,TSP1 [4],significantly reduces
same,effect on cell proliferation,C4-2 cells [7],no effect; also recorded: without affecting
same,effect on apoptosis,C4-2 cells [8],no effect
same,enzymatic activity of caspases 3 and 7 versus control,C4-2 cells [8],not statistically different
"TSP1b-siRNA: Duplex UACCCGAGACGAUUGUAUGdTdT / CAUACAAUCGUCUCGGGUAdTdT targeting specifically the human TSP1 mRNA (sense UACCCGAGACGAUUGUAUGTT; antisense CAUACAAUCGUCUCGGGUATT; sugars from the 5' end r19 d2, backbone not given here)",TSP1 mRNA level,TSP1 mRNA; [9],significantly reduces
same,TSP1 protein level,TSP1 [4],significantly reduces
same,effect on cell proliferation,C4-2 cells [7],no effect; also recorded: without affecting
same,effect on apoptosis,C4-2 cells [8],no effect
same,enzymatic activity of caspases 3 and 7 versus control,C4-2 cells [8],not statistically different
"β3: siRNA targeting β3 integrin: GGAGAAUCUGCUGAAGGAUdTdT / AUCCUUCAGCAGAUUCUCCdTdT (chain 1 GGAGAAUCUGCUGAAGGAUTT; chain 2 AUCCUUCAGCAGAUUCUCCTT; sugars from the 5' end r19 d2, backbone not given here)",migration of C4-2 cells,C4-2 cells [5],strongly reduced
